Data taken from patent publication US20150031668A1, “CHROMAN DERIVATIVES AS TRPM8 INHIBITORS” (AMGEN INC., priority 2013, published 2015).
Counter-ions that a name gives are not always drawn.

Each compound was assayed against T1, human TRPM8 (Homo sapiens, UniProt Q7Z2W7) (assay: Luminescence readout assay for measuring intracellular calcium (aequorin, CHO cells expressing human TRPM8; icilin, L-menthol or cold activation)). Conditions: CHO cells expressing human TRPM8, icilin activation (1 μM), aequorin luminescence; read-out: hTRPM8 IC50.
T1 construct: expressed in transfected cells; host or cells: Chinese hamster ovary (CHO) cells, T-REx tetracycline-inducible expression system (Invitrogen); co-transfected with pcDNA3.1 aequorin
T1 sequence (Q7Z2W7 whole entry): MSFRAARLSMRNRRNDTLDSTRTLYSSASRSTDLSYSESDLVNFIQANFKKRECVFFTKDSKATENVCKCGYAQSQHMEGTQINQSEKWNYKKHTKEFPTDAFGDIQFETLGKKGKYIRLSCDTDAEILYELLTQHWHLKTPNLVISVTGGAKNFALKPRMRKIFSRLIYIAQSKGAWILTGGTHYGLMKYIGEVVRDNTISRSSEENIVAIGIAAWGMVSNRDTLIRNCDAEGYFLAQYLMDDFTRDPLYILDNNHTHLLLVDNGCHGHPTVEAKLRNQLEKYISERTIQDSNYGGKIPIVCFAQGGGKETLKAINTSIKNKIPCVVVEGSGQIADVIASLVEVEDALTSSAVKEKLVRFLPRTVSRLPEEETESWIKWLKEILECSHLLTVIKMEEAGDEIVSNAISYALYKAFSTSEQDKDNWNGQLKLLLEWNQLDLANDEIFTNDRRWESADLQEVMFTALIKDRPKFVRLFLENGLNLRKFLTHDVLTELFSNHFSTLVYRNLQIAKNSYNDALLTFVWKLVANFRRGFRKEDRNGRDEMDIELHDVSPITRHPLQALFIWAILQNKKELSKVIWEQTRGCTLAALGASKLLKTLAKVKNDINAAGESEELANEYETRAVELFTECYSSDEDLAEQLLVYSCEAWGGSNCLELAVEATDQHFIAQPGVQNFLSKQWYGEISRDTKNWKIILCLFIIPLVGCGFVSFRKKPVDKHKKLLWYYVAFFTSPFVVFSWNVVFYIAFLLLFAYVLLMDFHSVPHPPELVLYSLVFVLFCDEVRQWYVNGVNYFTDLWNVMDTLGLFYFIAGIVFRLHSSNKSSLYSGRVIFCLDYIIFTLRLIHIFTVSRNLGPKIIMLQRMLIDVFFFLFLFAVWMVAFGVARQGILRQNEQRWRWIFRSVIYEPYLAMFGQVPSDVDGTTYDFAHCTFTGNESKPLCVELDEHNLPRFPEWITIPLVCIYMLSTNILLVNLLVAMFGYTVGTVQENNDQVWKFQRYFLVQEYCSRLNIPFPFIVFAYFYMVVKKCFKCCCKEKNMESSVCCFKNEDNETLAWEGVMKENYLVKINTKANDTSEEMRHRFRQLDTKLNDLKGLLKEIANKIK
Assay type: cell-based
In short: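 Activation was by 1 μM icilin, 100 μM L-menthol (test compound 2.5 min ahead) or cold buffer below 10° C (compound 1 min ahead). Calcium rise measured as aequorin luminescence in CHO cells with tetracycline-inducible human TRPM8.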
Work on `Cc1nc(-c2ccc(C(=O)N[C@]3(c4ccc(OC(F)(F)F)cc4)CCOc4cccnc43)cc2)no1` [Example 276, (S)-4-(5-methyl-1,2,4-oxadiazol-3-yl)-N-(4-(4-(trifluoromethoxy)phenyl)-3,4-dihydro-2H-pyrano[3,2-b]pyridin-4-yl)benzamide formate] yielded an IC50 of 16 nM. `O=C(N[C@]1(c2ccc(OC(F)(F)F)cc2)CCOc2cccnc21)c1cccc(N2CCCC2=O)c1` [Example 277, (S)-3-(2-oxopyrrolidin-1-yl)-N-(4-(4-(trifluoromethoxy)phenyl)-3,4-dihydro-2H-pyrano[3,2-b]pyridin-4-yl)benzamide formate] gave an IC50 of 85 nM. Work on `COc1ccc2c(c1)C=C(C(=O)N[C@]1(c3ccc(OC(F)(F)F)cc3)CCOc3cccnc31)CO2` [Example 278, (S)-6-methoxy-N-(4-(4-(trifluoromethoxy)phenyl)-3,4-dihydro-2H-pyrano[3,2-b]pyridin-4-yl)-2H-chromene-3-carboxamide fonnate] yielded an IC50 of 68 nM. `CCOC(=O)c1nc(C(=O)N[C@]2(c3ccc(OC(F)(F)F)c(F)c3)CCOc3cccnc32)cs1` [Example 279, (S)-ethyl 4-((4-(3-fluoro-4-(trifluoromethoxy)phenyl)-3,4-dihydro-2H-pyrano[3,2-b]pyridin-4-yl)carbamoyl) thiazole-2-carboxylate] was tested, and the IC50 was 53 nM. `COC(=O)c1cccc(C(=O)N[C@]2(c3ccc(OC(F)(F)F)c(F)c3)CCOc3cccnc32)c1` [Example 280, (S)-methyl 3-((4-(3-fluoro-4-(trifluoromethoxy)phenyl)-3,4-dihydro-2H-pyrano[3,2-b]pyridin-4-yl)carbamoyl) benzoate] showed an IC50 of 26 nM. `O=C(N[C@]1(c2ccc(OC(F)(F)F)c(F)c2)CCOc2cccnc21)c1ccc(-c2nn[nH]n2)cn1` [Example 281, (S)—N-(4-(3-fluoro-4-(trifluoromethoxy)phenyl)-3,4-dihydro-2H-pyrano[3,2-b]pyridin-4-yl)-5-(2H-tetrazol-5-yl)picolinamide] gave an IC50 of 51 nM. For `O=C(N[C@]1(c2ccc(OC(F)(F)F)c(F)c2)CCOc2cccnc21)c1ccc(-c2ncon2)cn1` [Example 282, (S)—N-(4-(3-fluoro-4-(trifluoromethoxy)phenyl)-3,4-dihydro-2H-pyrano[3,2-b]pyridin-4-yl)-5-(1,2,4-oxadiazol-3-yl)picolinamide], the IC50 was 7 nM. Compound `Nc1ccc(C(=O)N[C@]2(c3ccc(OC(F)(F)F)c(F)c3)CCOc3cccnc32)nc1` [Example 284, (S)-5-amino-N-(4-(3-fluoro-4-(trifluoromethoxy)phenyl)-3,4-dihydro-2H-pyrano[3,2-b]pyridin-4-yl)picolinamide] has an IC50 of 6 nM. `COC(=O)c1cccc(S(=O)(=O)N[C@]2(c3ccc(OC(F)(F)F)c(F)c3)CCOc3cccnc32)c1` [Example 285, (S)-methyl 3-(N-(4-(3-fluoro-4-(trifluoromethoxy)phenyl)-3,4-dihydro-2H-pyrano[3,2-b]pyridin-4-yl)sulfamoyl)benzoate] showed an IC50 of 179 nM. For `COC(=O)c1ccc(S(=O)(=O)N[C@]2(c3ccc(OC(F)(F)F)c(F)c3)CCOc3cccnc32)cc1` [Example 286, (S)-methyl 4-(N-(4-(3-fluoro-4-(trifluoromethoxy)phenyl)-3,4-dihydro-2H-pyrano[3,2-b]pyridin-4-yl)sulfamoyl)benzoate], the IC50 was 754 nM. Compound `Cc1cc(C(=O)N[C@]2(c3ccc(C(F)(F)F)c(F)c3)CCOc3cccnc32)ccc1C(=O)O` [Example 287, (S)-4-((4-(3-fluoro-4-(trifluoromethyl)phenyl)-3,4-dihydro-2H-pyrano[3,2-b]pyridin-4-yl)carbamoyl)-2-methylbenzoic acid] has an IC50 of 17 nM. Work on `Cc1cc(C(=O)N[C@]2(c3ccc(C(F)(F)F)cc3)CCOc3cccnc32)ccc1C(=O)O` [Example 288, (S)-2-methyl-4-((4-(4-(trifluoromethyl)phenyl)-3,4-dihydro-2H-pyrano[3,2-b]pyridin-4-yl)carbamoyl)benzoic acid] yielded an IC50 of 45 nM. With `O=C(N[C@]1(c2ccc(OC(F)(F)F)c(F)c2)CCOc2cccnc21)c1ccc(C(=O)O)c(-c2ccccc2)c1` [Example 290, (S)-5-((4-(3-fluoro-4-(trifluoromethoxy)phenyl)-3,4-dihydro-2H-pyrano[3,2-b]pyridin-4-yl)carbamoyl)-[1,1′-biphenyl]-2-carboxylic acid] the IC50 was 86 nM. With `CC(C)c1cc(C(=O)N[C@]2(c3ccc(OC(F)(F)F)c(F)c3)CCOc3cccnc32)ccc1C(=O)O` [Example 292, (S)-4-((4-(3-fluoro-4-(trifluoromethoxy)phenyl)-3,4-dihydro-2H-pyrano[3,2-b]pyridin-4-yl)carbamoyl)-2-isopropylbenzoic acid] the IC50 was 14 nM. Work on `CC(C)Cc1cc(C(=O)N[C@]2(c3ccc(OC(F)(F)F)c(F)c3)CCOc3cccnc32)ccc1C(=O)O` [Example 293, (S)-4-((4-(3-fluoro-4-(trifluoromethoxy)phenyl)-3,4-dihydro-2H-pyrano[3,2-b]pyridin-4-yl)carbamoyl)-2-isobutylbenzoic acid] yielded an IC50 of 7 nM. For `CNc1cc(C(=O)N[C@]2(c3ccc(OC(F)(F)F)c(F)c3)CCOc3cccnc32)ccc1C(=O)O` [Example 294, (S)-4-((4-(3-fluoro-4-(trifluoromethoxy)phenyl)-3,4-dihydro-2H-pyrano[3,2-b]pyridin-4-yl)carbamoyl)-2-(methylamino)benzoic acid], the IC50 was 3 nM. With `COC(=O)c1ccc(C(=O)N[C@]2(c3ccc(OC(F)(F)F)c(F)c3)CCOc3cccnc32)cc1NC(C)=O` [Example 295, (S)-methyl 2-acetamido-4-((4-(3-fluoro-4-(trifluoromethoxy)phenyl)-3,4-dihydro-2H-pyrano[3,2-b]pyridin-4-yl)carbamoyl)benzoate] the IC50 was 15 nM. `CNC(=O)c1ccc(C(=O)N[C@]2(c3ccc(OC(F)(F)F)c(F)c3)CCOc3cccnc32)cc1C` [Example 296, (S)—N4-(4-(3-fluoro-4-(trifluoromethoxy)phenyl)-3,4-dihydro-2H-pyrano[3,2-b]pyridin-4-yl)-N1,2-dimethylterephthalamide] was tested, and the IC50 was 8 nM. With `Cc1cc(C(=O)N[C@]2(c3ccc(OC(F)(F)F)c(F)c3)CCOc3cccnc32)ccc1C(=O)NC(C)(C)C` [Example 297, (S)—N1-(tert-butyl)-N4-(4-(3-fluoro-4-(trifluoromethoxy)phenyl)-3,4-dihydro-2H-pyrano[3,2-b]pyridin-4-yl)-2-methylterephthalamide] the IC50 was 26 nM. Compound `O=C(N[C@]1(c2ccc(OC(F)(F)F)c(F)c2)CCOc2cccnc21)c1ccc(C(=O)O)c(O)c1` [Example 298, (S)-4-((4-(3-fluoro-4-(trifluoromethoxy)phenyl)-3,4-dihydro-2H-pyrano[3,2-b]pyridin-4-yl)carbamoyl)-2-hydroxybenzoic acid] has an IC50 of 23 nM. For `Cn1cc(C(=O)N[C@]2(c3ccc(OC(F)(F)F)c(F)c3)CCOc3cccnc32)cc1C(=O)O` [Example 299, (S)-4-((4-(3-fluoro-4-(trifluoromethoxy)phenyl)-3,4-dihydro-2H-pyrano[3,2-b]pyridin-4-yl)carbamoyl)-1-methyl-1H-pyrrole-2-carboxylic acid], the IC50 was 115 nM. For `O=C(N[C@]1(c2ccc(OC(F)(F)F)c(F)c2)CCOc2cccnc21)c1ccc(C(=O)O)c(C2CC2)c1` [Example 300, (S)-2-cyclopropyl-4-((4-(3-fluoro-4-(trifluoromethoxy)phenyl)-3,4-dihydro-2H-pyrano[3,2-b]pyridin-4-yl)carbamoyl)benzoic acid], the IC50 was 12 nM. Compound `Cc1[nH]c(C(=O)N[C@]2(c3ccc(OC(F)(F)F)c(F)c3)CCOc3cccnc32)cc1C(=O)O` [Example 301] has an IC50 of 266 nM. `O=C(N[C@]1(c2ccc(OC(F)(F)F)c(F)c2)CCOc2cccnc21)c1ccc(C(=O)O)c(NC2CC2)c1` [Example 302, (S)-2-(cyclopropylamino)-4-((4-(3-fluoro-4-(trifluoromethoxy)phenyl)-3,4-dihydro-2H-pyrano[3,2-b]pyridin-4-yl)carbamoyl)benzoic acid] gave an IC50 of 4 nM. In the case of `Cc1c(C(=O)O)cc(C(=O)N[C@]2(c3ccc(OC(F)(F)F)c(F)c3)CCOc3cccnc32)n1C` [Example 303], the IC50 is reported as 28 nM. With `CNc1cc(C(=O)N[C@]2(c3ccc(OC(F)(F)F)c(F)c3)CCOc3cccnc32)cc(F)c1C(=O)O` [Example 304, (S)-2-fluoro-4-((4-(3-fluoro-4-(trifluoromethoxy)phenyl)-3,4-dihydro-2H-pyrano[3,2-b]pyridin-4-yl)carbamoyl)-6-(methylamino)benzoic acid] the IC50 was 28 nM. Compound `COC(=O)c1ccc(C(=O)N[C@]2(c3ccc(OC(F)(F)F)c(F)c3)CCOc3cccnc32)n1C` [Example 305, (S)-methyl 5-((4-(3-fluoro-4-(trifluoromethoxy)phenyl)-3,4-dihydro-2H-pyrano[3,2-b]pyridin-4-yl)carbamoyl)-1-methyl-1H-pyrrole-2-carboxylate] has an IC50 of 15 nM. `O=C(O)c1ccc(C(=O)N[C@]2(c3ccc(OC(F)(F)F)c(F)c3)CCOc3cccnc32)[nH]1` [Example 306, (S)-5-((4-(3-fluoro-4-(trifluoromethoxy)phenyl)-3,4-dihydro-2H-pyrano[3,2-b]pyridin-4-yl)carbamoyl)-1H-pyrrole-2-carboxylic acid] gave an IC50 of 159 nM. Compound `O=C(NS(=O)(=O)c1ccccc1)c1ccc(C(=O)N[C@]2(c3ccc(OC(F)(F)F)c(F)c3)CCOc3cccnc32)nc1` [Example 307, (S)—N2-(4-(3-fluoro-4-(trifluoromethoxy)phenyl)-3,4-dihydro-2H-pyrano[3,2-b]pyridin-4-yl)-N5-(phenylsulfonyl)pyridine-2,5-dicarboxamide 2,2,2-trifluoroacetate] has an IC50 of 631 nM. Work on `O=C(N[C@]1(c2ccc(OC(F)(F)F)c(F)c2)CCOc2cccnc21)c1ccco1` [Example 308, (S)—N-(4-(3-fluoro-4-(trifluoromethoxy)phenyl)-3,4-dihydro-2H-pyrano[3,2-b]pyridin-4-yl)furan-2-carboxamide] yielded an IC50 of 11 nM.
